Results as given in US20020177120A1, “ASSAYS FOR APOTOSIS MODULATORS” (priority 1999, published 2002).

What was measured:
[1] = tested on: caspase-3; assay: Caspase-3 assay in SAT-reporter-transformed HEK293 cells after apoptosis inducers; format: cell-based, human; conditions: confluent HEK293, 1-5 μM staurosporin for 8 hrs.
[2] = tested on: U-138 cells; assay: FRET signal in SAT-transfected U-138 cells; format: cell-based, human; conditions: pcDNA3VH-SAT transfected U-138 parental cultures
From the text: Stable expression of the SAT reporter in U-138 cells was investigated by transfecting cultures with pcDNA3VH-SAT using calcium phosphate (Materials and Methods), and then selecting in medium containing G418 ([…]). […] The parental culture showing the strongest fluorescence and best growth characteristics was subcloned. Unexpectedly, the ability of the subclones to produce a staurosporin-inducible change in FRET signal was not stable, i.e., disappearing at passages 9, 11 and 13, but then reappearing at passage 16. While it was speculated that this phenomena may have resulted from some difference in expression and/or regulation of apoptosis or FRET reporter in sub-cultures of cells, these properties were not considered desirable and these SAT-transfected U-138 cell lines were discontinued in hopes that an improved reporter construct might solve the problem of irreproducibility.

[3] = tested on: F9-1-13 cells; assay: Cell-based FRET reporter assay in F9-1-13 (SgAT) cells; set-up: species or system human
From the text: Transfection of pcDNA3VH-SgAT and pcDNA3VH-SnAT into U-138 cells (using methods described above) resulted initially in few colonies and FRET signal was lost in many clones during expansion, however, from among the various subclones the F9-1-13 (pcDNA3VH-SgAT transfected; ATCC No. PTA-84) and F10-24-2 (pcDNA3-SnAT transfected) subclones were eventually expanded and shown to express stable FRET signals. As desired, the FRET signal expressed in F9-1-13 decreased in response to both staurosporin and anti-Fas antibody treatment of cells, while the FRET signal expressed by the F10-24-2 control cells, (i.e., lacking a caspase substrate domain), was unaffected following staurosporin or anti-Fas antibody treatment. […] F9-1-13 therefore appeared suitable for microtiter assays, and perhaps use in HTS assays for screening to identify and select modulators of apoptosis.
Studies were initiated to adapt the experimental cell-based FRET assay of EXAMPLE 5 to a format suitable for use in high-throughput screening. First, the assay was scaled down from a 24-well to a 96-well plate format. Cells from three different F9 parental cultures were plated in a black-sided 96-well plates (Costar #3904) at a density of 32,000 cells/well (˜1×10^5 cells/cm^2); allowed to adhere overnight; and then the media was replaced with either 100 μl fresh media containing inducer (5 μM staurosporin in 0.25% DMSO vehicle) or 100 μl containing only vehicle (0.25% DMSO). After an overnight incubation, fluorescence measurements were made to evaluate FRET signal changes. […] The assay therefore appeared to be adaptable to a 96-well format but it was not initially clear how signal might be improved to increase the signal-to-background ratio.
A 96-well FRET assay was evaluated for inter-assay well variability and inter-plate variability. Possible signal drift during measurement of the FRET fluorescence signal was evaluated using one of two different robotics-compatible rapid fluorescence plate readers (SpeedReader or Cytofluor II). After plating at an initial density of about 60,000 cells/well, and overnight culture F9-1-13 cells were treated with 5 μM staurosporin, or vehicle. After an overnight incubation in staurosporin (i.e., 16-24 hrs.), the plates were either washed, or not washed, and then assayed repeatedly over the next 1.5 hours using either of the plate readers. […] However, using the same assay conditions but with anti-Fas antibody as an inducer, different results were recorded. […] The basis for the observed differences in measuring devices is not clear, but may relate to the design of the light source and/or the sensitivity of the detection circuitry in the two different respective fluorescence readers as well as possible different means for optically or digitally subtracting background incident radiation.
Assay Confirmation: The following experiment was performed to validate the ability of the 96-well FRET assay to detect inhibitors of apoptosis: namely, F9-1-13 cells (n=5 wells) were treated with 50-100 μM Z-VAD-fmk (a broad spectrum caspase inhibitor) or vehicle (n=55) in randomized wells of a 96-well plate. All of these wells, and six additional positive control wells (i.e., lacking the inhibitor), were treated with 5 μM staurosporine in 0.25% DMSO vehicle. Six negative control wells were treated with vehicle only (0.25% DMSO). After overnight incubation, FRET signal changes were evaluated as described above.
Three alternatives to staurosporine induction were evaluated: serum withdrawal; c2-ceramide treatment; and induction via engagement of the CD95/Fas receptor with anti-Fas antibody. […] To increase the proportion of adherent cells, poly-D-lysine and 0.1% gelatin were evaluated in anti-Fas antibody treated F9-1-13 cells. […] Anti-Fas antibody was therefore chosen as a preferred inducer of apoptosis for high-throughput screening. […]

SMILES: CN[C@@H]1C[C@H]2O[C@@](C)([C@@H]1OC)n1c3ccccc3c3c4c(c5c6ccccc6n2c5c31)C(=O)NC4 [staurosporin]
- increase in caspase-3 activity over background [1]: 6- to 10 fold
- FRET signal change, correlated with FRET reporter cleavage in western blot [2]: induced changes in FRET signal
- FRET signal compared to the vehicle control ([3]; 96-well, three F9 parental cultures, 32,000 cells/well, 5 μM overnight): significant (P<0.05) reduction in the FRET signal
- time to measurable changes in FRET signal ([3]; 60,000 cells/well, 5 μM, either fluorescence reader): ≤ 4 h
- FRET signal response to inducer treatment ([3]; F9-1-13 subclone): decreased
- FRET reporter cleavage by western blot after induction ([3]; staurosporin induction): significant (but not complete) cleavage of reporter
